Measurements from patent publication US20120219561A1, “Prophylaxis Against Cancer Metastasis” (Ingeneron, Inc., priority 2009, published 2012).

Tests used:
CXCR4 receptor = conditions: animal and human studies; cited from earlier work
[1] = test system: LCN2 expression in SKBr3 cells; test: Western blotting of LCN2 levels in SKBr3 cells incubated with pathway inhibitors; assay type: cell-based, human
Procedure: FIG. 3 depicts experiments showing that LCN2 (NGAL) is a down-stream target of the HER2/PI-3K/AKT/NF-κB pathway. A. Western blotting of LCN2 levels in HER2^+SKBr3 cells treated with Herceptin. B. Western blotting of LCN2 levels in SKBr3 cells incubated with PI-3K inhibitor LY 294002. C. Western blotting of LCN2 levels in SKBr3 cells incubated with the NF-KB inhibitor Bay11-7082. D. Western blotting of LCN2 levels in SKBr3 cells transiently expressing active or dominant negative AKT.
In addition, overexpression of dominant negative AKT led to reduced expression of LCN2, while overexpression of dominant active AKT increased LCN2 levels ([…]). […] Iannetti A, et al. “The neutrophil gelatinase-associated lipocalin (NGAL), a NF-kappaB-regulated gene, is a survival factor for thyroid neoplastic cells” Proc Natl Acad Sci USA 105(37) (2008) 14058.

4T1 mammospheres = test: Transwell migration assay of 4T1 mammospheres; assay type: cell-based, murine; conditions: recombinant SDF-1 in serum-free medium in lower chamber
Procedure: FIG. 5 show the mediators for interaction between stem cells and cancer cells. (A) 4T1 cells and especially spheroid-forming 4T1 cells migrate toward the conditioned medium of mASC. 4T1 cells (3×10^4) were plated in the upper chamber of a 3 μm transwell system. The lower chamber was filled with 1 ml of 72 h conditioned medium of mASC. After 24 h of migration through the transwell membrane, cells were fixed and stained with calcein. The results are the mean and SD number of migrated cells per microscopic field under fluorescent microscope. (B) Data showing that mASC but not 4T1 cells produce SDF-1; 4T1 cells especially spheroid-forming 4T1 cells show higher messenger RNA levels of the specific receptor CXCR4. Secreted amounts of SDF-1a were measured by enzyme-linked immunosorbent assay and CXCR4 messenger RNA levels were determined by quantitative reverse transcription-polymerase chain reaction (RT-PCR). Reverse transcription-polymerase chain reaction results were normalized against GAPDH. (C) 4T1 cells and mammospheres migrate toward recombinant SDF-1 in a transwell system. Recombinant murine SDF-1 in serum-free medium was filled into the lower chamber in stated concentrations. CXCR4 inhibition was performed by 30 μg/ml neutralizing antibody 1 h before and during the migration assay. […]

c1cc(CN2CCCNCCNCCCNCC2)ccc1CN1CCCNCCNCCCNCC1 [AMD3100]
hematopoietic stem cell mobilization (CXCR4 receptor): able to induce hematopoietic stem cell mobilization

Cc1ccc(S(=O)(=O)/C=C/C#N)cc1 [Bay11-7082]
LCN2 expression [1]: reduced in a dose-dependent manner

recombinant SDF-1: recombinant murine SDF-1 (CXCL12), ligand of CXCR4
migration of 4T1 spheroid-forming cells (4T1 mammospheres): triggers migration
